Data published in publication PMC6017844, “4-Thiazolidinone Derivatives as MMP Inhibitors in Tissue Damage: Synthesis, Biological Evaluation and Docking Studies” (Molecules : A Journal of Synthetic Chemistry and Natural …, 2018).
Where two headings read alike, the source gives them in different places.

Legend:
[1] = Oxygen Radical Absorbance Capacity (ORAC) assay; conditions: for ORAC UNITs: fluorescein 10 nM, AAPH 100 mM, 37 °C, pH 7.0, mean ± SD (n = 3), Trolox = 1 ORAC Units
Excerpt: Free radicals and ROS are highly reactive molecules that are generated by normal cellular processes. They react with cellular components, damaging DNA, carbohydrates, proteins, and lipids causing cellular and tissue injury. Although organisms have developed complex antioxidant systems to protect themselves from oxidative substances, an excess of ROS production can lead to inflammation and several disease state. ORAC test measures both lipophilic and hydrophilic antioxidant capacity and determines the ability of antioxidants to protect proteins from damage caused by free radicals. ORAC assay has been widely accepted as a standard in vitro to measure the antioxidant activity of synthetic compounds, measuring their capacity to transfer hydrogen atom. The assay measures the loss of fluorescence over time due to peroxyl-radical formation by the breakdown of 2,2′-azobis-2-methyl-propanimidamide dihydrochloride (AAPH). 6-Hydroxy-2,5,7,8-tetramethylchroman-2-carboxylic acid (Trolox), a water soluble vitamin E analog, is a positive control that inhibits the fluorescein decay in a dose dependent manner. The ORAC assay is a kinetic assay measuring fluorescein decay and antioxidant protection over time.
The ORAC assay was performed as previously reported by Cao et al.. The measurements were carried out on a Wallac 1420 Victor^3 96-well plate reader (EG & Wallac, Turku, Finland) with fluorescence filter ([…]). Fluorescein (10 nM) was the fluorescence probe and target molecule for free radical attack from AAPH (100 mM) as peroxyl radical generator. The reaction was conducted at 37 °C at pH 7.0 with Trolox (12.5 μM) as control standard and phosphate buffer as blank. Compounds 13–19 and 22–23 were appropriately diluted with DMSO/buffer (1:10) prior to analysis. The fluorescein fluorescence was recorded every 2 min after addition of AAPH. All measurements were expressed relative to the initial reading. One blank, one standard, and a maximum of 10 samples were analyzed at the same time. Each measure was repeated at least three times. The ORAC value refers to the net protection area under the quenching curve of fluorescein in the presence of an antioxidant. The final results (ORAC value) were calculated and expressed using Trolox equivalents (TE) per gram of extract (TE/g):ORAC value (μM) = K(S sample − S blank)/(S Trolox − S blank)(1) where K is a sample dilution factor, S is the area under the fluorescence decay curve of the sample, Trolox or blank. This area was calculated with Origin®7 (OriginLab Corporation, Northampton, MA, USA).

human recombinant MMP-9 = target: T1, human recombinant MMP-9 (Homo sapiens, UniProt P14780); assay: MMP-9 fluorimetric assay; type: biochemical
T1 construct: using 10 nM of proteolytic enzyme (catalytic domains of MMP-9 (Biomol, Inc.)); purchased Biomol, Inc
T1 sequence (P14780 107-444 limits assumed): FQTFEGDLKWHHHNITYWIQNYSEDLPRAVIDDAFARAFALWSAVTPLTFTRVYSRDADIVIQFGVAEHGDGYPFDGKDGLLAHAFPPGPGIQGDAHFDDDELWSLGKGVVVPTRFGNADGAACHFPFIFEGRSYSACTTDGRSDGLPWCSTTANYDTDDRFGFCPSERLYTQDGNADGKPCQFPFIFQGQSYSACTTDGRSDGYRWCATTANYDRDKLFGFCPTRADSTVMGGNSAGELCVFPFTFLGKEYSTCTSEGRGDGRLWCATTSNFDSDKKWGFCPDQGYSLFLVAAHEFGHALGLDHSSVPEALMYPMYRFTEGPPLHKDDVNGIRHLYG
Experimental: The synthesized compounds 13–19, 22 and 23 were tested for their in vitro ability to inhibit human recombinant MMP-9. Table 2 reports the results of this inhibition assay, expressed as IC50 (µM). […] We used as positive control a potent MMPs inhibitor, NNGH (N-isobutyl-N-(4-methoxy-phenylsulfonyl)glycylhydroxamic acid).
The compounds were evaluated for their ability to inhibit the hydrolysis of fluorescence-quenched peptide substrate Mca-Pro-Leu-Gly-Leu-Dpa-Ala-Arg-NH2 (Biomol, Inc., Enzo Life Sciences, Inc., Farmingdale, NY, USA). The MMP-9 assays were performed in 50 mM HEPES buffer containing 5 mM CaCl2, 0.1 mM ZnCl2, 0.05% Brij-35, at pH 7, using 10 nM of proteolytic enzyme (catalytic domains of MMP-9 (Biomol, Inc.) and 350 nM of peptide substrate. The enzyme was incubated at 25 °C with increasing concentration (0.0004, 0.004, 0.04, 0.4, 4, 40, 400 µM) of compounds, and the fluorescence (excitation max 328 nm; emission max 393 nm) was measured for 3 min after the addition of the substrate using a Victor Wallac 1420 Multilabel Counters fluorimeter (Perkin Elmer, Waltham, MA, USA). The fluorescence values of the samples were plotted against the time with a linear regression fit, using the Origin software, version 7 (Origin Lab Corporation, Northampton, MA, USA). The slope of the line value for each inhibitor concentrations was obtained where an increase of the slope corresponds to a decrease of inhibitory activity. Subsequently, the IC50 values were obtained from a non-linear regression procedure (log inhibitor vs. response) with a variables slope of the regression line (Y) and the molar inhibitor concentration (X), using the software Origin®7 (Origin Lab Corporation). The IC50 value was obtained from the equation Y = P1/(1 + X/P2). NNGH (N-Isobutyl-N-(4-methoxyphenylsulfonyl)glycylhydroxamic acid) a potent MMPs inhibitor was used as a positive control.

NF-κB = NF-κB levels by Western blot analysis; type: cell-based, human; conditions: NCTC 2544 stimulated with IFN-γ and histamine, 10 µM, 48 h, in words
Excerpt: The treatment of keratinocyte cell line NCTC 2544 with 200 U/mL of IFN-γ and 10^−4 M of H increased NF-κB levels compared to untreated cells. IFN-γ is an essential cytokine in amplifying inflammatory reactions, as it stimulates the synthesis of chemokines that attract inflammatory cells and induces expression of molecules important for the retention and activation of T cells. We employed both IFN-γ and histamine because they use distinct signal transduction pathways, and this can lead to a stronger activation of inflammatory genes. […] Stimulated keratinocytes were treated with compounds 22 and 23 and the levels of NF-κB were measured after 48 h. […]
The normal human keratinocyte cell line NCTC 2544 was provided by Interlab Cell Line Collection Genoa (Genova, Italy) and cultured in Minimum Essential Medium (MEM) (Sigma-Aldrich, Milan, Italy) containing 10% fetal calf serum, 100 U/mL penicillin and 100 μg/mL streptomycin at 37 °C in a humidified, 95% air/5% CO2 atmosphere. […] A day before the experiment, cells were trypsinized, counted, and plated either in 96 wells or in 6 well plates. […]
The expression of nuclear factor kappa-light-chain-enhancer of activated B cells (NF-κB) was evaluated by Western blot analysis. […] Bands were measured densitometrically and their relative density was calculated based on the density of the […] in each sample. […]

CC(C(=O)NN1C(=O)CSC1c1ccc(C(=O)O)cc1)c1nsc2ccccc12 (stereo not shown) [Compound 23, 4-(3-{[2-(1,2-Benzothiazol-3-yl)propanoyl]amino}-4-oxo-1,3-thiazolidin-2-yl)benzoic acid]
ORAC value [1]: 0.53 TE/µmol | ORAC UNITs [1]: 0.53 ± 0.17 ORAC unit (μmol of Trolox equi | IC50 (human recombinant MMP-9; read-out: IC50 (MMP-9)): 40 nM | effect on NF-κB release (NF-κB): reduced NF-κB release | melting point: 137 to 140 °C

CC(C(=O)NN1C(=O)CSC1c1ccc(O)cc1)c1nsc2ccccc12 (stereo not shown) [Compound 22, 2-(1,2-Benzothiazol-3-yl)-N-[2-(4-hydroxyphenyl)-4-oxo-1,3-thiazolidin-3-yl]propanamide]
antioxidant activity in words ([1]; delay of fluorescence reduction of fluorescein-AAPH solution): excellent antioxidant effectiveness | ORAC UNITs [1]: 1.24 ± 0.09 ORAC unit (μmol of Trolox equi | IC50 (human recombinant MMP-9; catalytic domain of MMP-9 10 nM, substrate 350 nM, 25 °C, pH 7, mean ± SD (n = 3), n.a. = not active, read-out: IC50 Value): 300 ± 50 nM | effect on NF-κB release (NF-κB): reduced NF-κB release | melting point: 257 to 259 °C
